Values quoted from earlier work as cited in patent publication US7759468B1, “Bioactive peptide-based probes” (priority 2003, dated 2010).

System: L. lactis ssp. lactis C2
Details: known / from the literature; cited from earlier work

Glu-Glu [Glu-Glu peptide]
Inhibition of growth: potent inhibitor of growth
